From PubChem BioAssay AID1963833 (Molecular Pharmacology Branch, DTP, NCI, 2024)

Tested on: 883617-216-R-J1-PDC complex spheroid viability
Test: Anticancer human tumor 883617-216-R-J1-PDC patient-derived bladder carcinoma cell line growth inhibition [POLQ]
Settings: for IC50: curve of first compound; for viability, T/C: stronger effect = lower value
Method in brief: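 PDC + HUVEC + MSC complex spheroids; POLQ inhibitors ± partner drugs; top conc. at/near clinical Cmax, else 10 microM (SN-38 1 microM), half-log dilutions; 37 degrees C, 5% CO2.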

[1] = second compound 0.0316 µM, first compound 0.0316 µM
[2] = second compound 0.0316 µM, first compound 0.1 µM
[3] = second compound 0.0316 µM, first compound 0.316 µM
[4] = second compound 0.0316 µM, first compound 1 µM
[5] = second compound 0.1 µM, first compound 0.0316 µM
[6] = second compound 0.1 µM, first compound 0.1 µM
[7] = second compound 0.1 µM, first compound 0.316 µM
[8] = second compound 0.1 µM, first compound 1 µM
[9] = second compound 0.316 µM, first compound 0.0316 µM
[10] = second compound 0.316 µM, first compound 0.1 µM
[11] = second compound 0.316 µM, first compound 0.316 µM
[12] = second compound 0.316 µM, first compound 1 µM
[13] = second compound 1 µM, first compound 0.0316 µM
[14] = second compound 1 µM, first compound 0.1 µM
[15] = second compound 1 µM, first compound 0.316 µM
[16] = second compound 1 µM, first compound 1 µM
[17] = second compound 3.16 µM, first compound 0.0316 µM
[18] = second compound 3.16 µM, first compound 0.1 µM
[19] = second compound 3.16 µM, first compound 0.316 µM
[20] = second compound 3.16 µM, first compound 1 µM
[21] = second compound 10 µM, first compound 0.0316 µM
[22] = second compound 10 µM, first compound 0.1 µM
[23] = second compound 10 µM, first compound 0.316 µM
[24] = second compound 10 µM, first compound 1 µM
[25] = second compound 0.0316 µM, first compound 3.16 µM
[26] = second compound 0.0316 µM, first compound 10 µM
[27] = second compound 0.1 µM, first compound 3.16 µM
[28] = second compound 0.1 µM, first compound 10 µM
[29] = second compound 0.316 µM, first compound 3.16 µM
[30] = second compound 0.316 µM, first compound 10 µM
[31] = second compound 1 µM, first compound 3.16 µM
[32] = second compound 1 µM, first compound 10 µM
[33] = second compound 3.16 µM, first compound 3.16 µM
[34] = second compound 3.16 µM, first compound 10 µM
[35] = second compound 10 µM, first compound 3.16 µM
[36] = second compound 10 µM, first compound 10 µM
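Note: spheroids exposed to compounds for seven days before readout.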
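Throughout, for viability, T/C: 100% = DMSO vehicle control viability.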

## C=CCn1c(=O)c2cnc(Nc3ccc(N4CCN(C)CC4)cc3)nc2n1-c1cccc(C(C)(C)O)n1 + Cc1cccc(N(C)C(=O)C2C(O)CCN2c2nc(C)cc(C(F)(F)F)c2C#N)c1
Second compound 0.0316 µM
  IC50: 938 nM
Second compound 0.1 µM
  IC50: > 1000 nM
Second compound 0.316 µM
  IC50: 896 nM
Second compound 1 µM
  IC50: > 1000 nM
Second compound 3.16 µM
  IC50: > 1000 nM
Second compound 10 µM
  IC50: > 1000 nM
Second compound 0.0316 µM, first compound 0.00316 µM
  viability, T/C: 106%
Second compound 0.0316 µM, first compound 0.01 µM
  viability, T/C: 101%
[1]
  viability, T/C: 96.7%
[2]
  viability, T/C: 86.6%
[3]
  viability, T/C: 92.7%
[4]
  viability, T/C: 47.1%
Second compound 0.1 µM, first compound 0.00316 µM
  viability, T/C: 93.5%
Second compound 0.1 µM, first compound 0.01 µM
  viability, T/C: 93.3%
[5]
  viability, T/C: 95.4%
[6]
  viability, T/C: 109%
[7]
  viability, T/C: 86.2%
[8]
  viability, T/C: 53%
Second compound 0.316 µM, first compound 0.00316 µM
  viability, T/C: 88.2%
Second compound 0.316 µM, first compound 0.01 µM
  viability, T/C: 99.3%
[9]
  viability, T/C: 102%
[10]
  viability, T/C: 98.8%
[11]
  viability, T/C: 90.8%
[12]
  viability, T/C: 45.5%
Second compound 1 µM, first compound 0.00316 µM
  viability, T/C: 97.7%
Second compound 1 µM, first compound 0.01 µM
  viability, T/C: 99%
[13]
  viability, T/C: 108%
[14]
  viability, T/C: 112%
[15]
  viability, T/C: 81.9%
[16]
  viability, T/C: 53.2%
Second compound 3.16 µM, first compound 0.00316 µM
  viability, T/C: 104%
Second compound 3.16 µM, first compound 0.01 µM
  viability, T/C: 108%
[17]
  viability, T/C: 97.6%
[18]
  viability, T/C: 93.6%
[19]
  viability, T/C: 100%
[20]
  viability, T/C: 53.4%
Second compound 10 µM, first compound 0.00316 µM
  viability, T/C: 102%
Second compound 10 µM, first compound 0.01 µM
  viability, T/C: 108%
[21]
  viability, T/C: 119%
[22]
  viability, T/C: 99%
[23]
  viability, T/C: 107%
[24]
  viability, T/C: 54.3%

## CC(C)n1c(=O)n(C)c2cnc3cc(F)c(-c4ccc(OCCCN5CCCCC5)nc4)cc3c21 + Cc1cccc(N(C)C(=O)C2C(O)CCN2c2nc(C)cc(C(F)(F)F)c2C#N)c1
Second compound 0.0316 µM
  IC50: > 10000 nM
Second compound 0.1 µM
  IC50: > 10000 nM
Second compound 0.316 µM
  IC50: > 10000 nM
Second compound 1 µM
  IC50: > 10000 nM
Second compound 3.16 µM
  IC50: > 10000 nM
Second compound 10 µM
  IC50: > 10000 nM
[1]
  viability, T/C: 105%
[2]
  viability, T/C: 96.2%
[3]
  viability, T/C: 108%
[4]
  viability, T/C: 90%
[25]
  viability, T/C: 83.9%
[26]
  viability, T/C: 59.9%
[5]
  viability, T/C: 108%
[6]
  viability, T/C: 111%
[7]
  viability, T/C: 105%
[8]
  viability, T/C: 98.7%
[27]
  viability, T/C: 91.5%
[28]
  viability, T/C: 62%
[9]
  viability, T/C: 107%
[10]
  viability, T/C: 93.6%
[11]
  viability, T/C: 97.2%
[12]
  viability, T/C: 110%
[29]
  viability, T/C: 92.8%
[30]
  viability, T/C: 59%
[13]
  viability, T/C: 95.9%
[14]
  viability, T/C: 108%
[15]
  viability, T/C: 96.1%
[16]
  viability, T/C: 98.7%
[31]
  viability, T/C: 96.6%
[32]
  viability, T/C: 59.5%
[17]
  viability, T/C: 100%
[18]
  viability, T/C: 107%
[19]
  viability, T/C: 105%
[20]
  viability, T/C: 108%
[33]
  viability, T/C: 95.6%
[34]
  viability, T/C: 65.3%
[21]
  viability, T/C: 108%
[22]
  viability, T/C: 112%
[23]
  viability, T/C: 114%
[24]
  viability, T/C: 98.3%
[35]
  viability, T/C: 105%
[36]
  viability, T/C: 63.4%

## CC1COCCN1c1cc(-c2ccnn2C)c2ccnc(-c3ccn[nH]3)c2n1 (stereo unspecified) + Cc1cccc(N(C)C(=O)C2C(O)CCN2c2nc(C)cc(C(F)(F)F)c2C#N)c1
Second compound 0.0316 µM
  IC50: 205 nM
Second compound 0.1 µM
  IC50: 291 nM
Second compound 0.316 µM
  IC50: 273 nM
Second compound 1 µM
  IC50: 257 nM
Second compound 3.16 µM
  IC50: 204 nM
Second compound 10 µM
  IC50: 334 nM
[1]
  viability, T/C: 89.1%
[2]
  viability, T/C: 61.4%
[3]
  viability, T/C: 43.2%
[4]
  viability, T/C: 34%
[25]
  viability, T/C: 31.7%
[26]
  viability, T/C: 29.4%
[5]
  viability, T/C: 72.7%
[6]
  viability, T/C: 59.1%
[7]
  viability, T/C: 53.2%
[8]
  viability, T/C: 35.7%
[27]
  viability, T/C: 29.9%
[28]
  viability, T/C: 34.7%
[9]
  viability, T/C: 83.6%
[10]
  viability, T/C: 63.1%
[11]
  viability, T/C: 48%
[12]
  viability, T/C: 39.3%
[29]
  viability, T/C: 32.9%
[30]
  viability, T/C: 30.9%
[13]
  viability, T/C: 83.2%
[14]
  viability, T/C: 66.1%
[15]
  viability, T/C: 48.1%
[16]
  viability, T/C: 32.1%
[31]
  viability, T/C: 32.6%
[32]
  viability, T/C: 30.3%
[17]
  viability, T/C: 72%
[18]
  viability, T/C: 60.6%
[19]
  viability, T/C: 43.9%
[20]
  viability, T/C: 32.9%
[33]
  viability, T/C: 33%
[34]
  viability, T/C: 30.7%
[21]
  viability, T/C: 96.7%
[22]
  viability, T/C: 60%
[23]
  viability, T/C: 58.1%
[24]
  viability, T/C: 37.9%
[35]
  viability, T/C: 38.9%
[36]
  viability, T/C: 28.2%
